Test system: P12-Ichikawa
Assay: cell viability relative to DMSO control; higher = less cytotoxic
Conditions: 48 h
Procedure, shortened: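 NOMO1 or SEM (500 cells/well) or P12-Ichikawa (1000 cells/well) leukemia cells were adapted for at least four passages in each medium. They were seeded in 1536-well plates (5 μl) and pin-dosed with library compounds in DMSO over an 11-point threefold series, 47 μM to 0.79 nM. CellTiter-Glo One luminescence was read after 48 h at 37°C. Viability is the per-plate percentage relative to DMSO wells, with cell-free wells as background.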

[1] = HPLM + 10% dialyzed FBS, 0.000781 µM
[2] = HPLM + 10% dialyzed FBS, 0.00234 µM
[3] = HPLM + 10% dialyzed FBS, 0.00702 µM
[4] = HPLM + 10% dialyzed FBS, 0.0211 µM
[5] = HPLM + 10% dialyzed FBS, 0.0632 µM
[6] = HPLM + 10% dialyzed FBS, 0.19 µM
[7] = HPLM + 10% dialyzed FBS, 0.569 µM
[8] = HPLM + 10% dialyzed FBS, 1.71 µM
[9] = HPLM + 10% dialyzed FBS, 5.12 µM
[10] = HPLM + 10% dialyzed FBS, 15.4 µM
[11] = HPLM + 10% dialyzed FBS, 46.1 µM
[12] = RPMI 5 mM glucose + 10% FBS, 0.000781 µM
[13] = RPMI 5 mM glucose + 10% FBS, 0.00234 µM
[14] = RPMI 5 mM glucose + 10% FBS, 0.00702 µM
[15] = RPMI 5 mM glucose + 10% FBS, 0.0211 µM
[16] = RPMI 5 mM glucose + 10% FBS, 0.0632 µM
[17] = RPMI 5 mM glucose + 10% FBS, 0.19 µM
[18] = RPMI 5 mM glucose + 10% FBS, 0.569 µM
[19] = RPMI 5 mM glucose + 10% FBS, 1.71 µM
[20] = RPMI 5 mM glucose + 10% FBS, 5.12 µM
[21] = RPMI 5 mM glucose + 10% FBS, 15.4 µM
[22] = RPMI 5 mM glucose + 10% FBS, 46.1 µM
[23] = RPMI 5 mM glucose + 10% dialyzed FBS, 0.000781 µM
[24] = RPMI 5 mM glucose + 10% dialyzed FBS, 0.00234 µM
[25] = RPMI 5 mM glucose + 10% dialyzed FBS, 0.00702 µM
[26] = RPMI 5 mM glucose + 10% dialyzed FBS, 0.0211 µM
[27] = RPMI 5 mM glucose + 10% dialyzed FBS, 0.0632 µM
[28] = RPMI 5 mM glucose + 10% dialyzed FBS, 0.19 µM
[29] = RPMI 5 mM glucose + 10% dialyzed FBS, 0.569 µM
[30] = RPMI 5 mM glucose + 10% dialyzed FBS, 1.71 µM
[31] = RPMI 5 mM glucose + 10% dialyzed FBS, 5.12 µM
[32] = RPMI 5 mM glucose + 10% dialyzed FBS, 15.4 µM
[33] = RPMI 5 mM glucose + 10% dialyzed FBS, 46.1 µM

SMILES	cell viability [1] [%]	cell viability [2] [%]	cell viability [3] [%]	cell viability [4] [%]	cell viability [5] [%]	cell viability [6] [%]	cell viability [7] [%]	cell viability [8] [%]	cell viability [9] [%]	cell viability [10] [%]	cell viability [11] [%]	cell viability [12] [%]	cell viability [13] [%]	cell viability [14] [%]	cell viability [15] [%]	cell viability [16] [%]	cell viability [17] [%]	cell viability [18] [%]	cell viability [19] [%]	cell viability [20] [%]	cell viability [21] [%]	cell viability [22] [%]	cell viability [23] [%]	cell viability [24] [%]	cell viability [25] [%]	cell viability [26] [%]	cell viability [27] [%]	cell viability [28] [%]	cell viability [29] [%]	cell viability [30] [%]	cell viability [31] [%]	cell viability [32] [%]	cell viability [33] [%]
N\C1=N\C2=C(N=C[N]2COC(CO)CO)C(=O)N1	107	108	109	113	115	115	119	120	119	116	5.18	104	102	112	119	121	110	124	124	117	107	3.39	101	98.3	108	118	106	116	113	109	112	109	4.18
C=CCn1c(=O)c2cnc(Nc3ccc(N4CCN(C)CC4)cc3)nc2n1-c1cccc(C(C)(C)O)n1	120	116	121	125	110	111	99.3	43.7	17	15.9	17.4																						
Cc1c(C(=O)Nc2cccc(C(F)(F)F)c2)cc(-c2ccccc2)n1CCCN1CCOCC1	116	112	113	112	106	106	104	99.2	104	91.7	79.7	111	109	115	105	113	119	108	108	97.1	88	70.3	105	117	114	114	114	107	106	103	103	94	74.1
O=C1NC(=O)/C(=C/c2cccc(C(F)(F)F)c2)S1	107	110	111	110	103	108	104	110	106	98	100	99.3	96.4	99.8	115	94.1	94.8	98.6	98.7	100	89.4	82.9	90.3	97.4	91.9	104	95.9	93.1	94.2	99.7	97.4	90.2	89.2
O=C1N\2CCC3=C([NH]C4=C3C=CC=C4)C2=N/C5=CC=CC=C15	119	120	128	126	129	130	129	129	132	113	92.3																						
CC(C)[C@H](CO)Nc1nc(Nc2cccc(Cl)c2)c2ncn(C(C)C)c2n1	98.7	112	113	115	113	112	107	104	45.9	26.6	8.74	110	109	120	124	125	115	118	118	76	42	10.2	97.7	110	112	117	115	106	93.4	102	58.5	18.2	4.68
CCCCCCCCc1ccc(CCC(N)(CO)CO)cc1	113	111	113	104	108	112	101	107	76.1	84.1	7.48	118	114	113	114	119	115	104	101	80.8	60	3.8	105	110	112	109	103	111	90.2	114	87.2	68	3.18
CC(NCc1ccc2c(c1)[nH]/c(=N\C(=O)c1ccc(-c3cn[nH]c3)s1)n2CC(C)(C)O)C(C)(C)C (stereo not drawn)	117	112	108	115	117	111	99.1	65	29.5	25.9	2.69	109	118	121	123	124	121	102	72.9	29.8	14.7	2.33	134	124	120	130	119	122	104	71	31.7	24.9	3.31
NC(=O)c1cccc(N)c1	106	105	70.8	116	120	122	117	117	121	111	116	101	106	67.8	121	115	124	108	117	120	117	113	101	112	78.1	114	115	115	124	120	115	120	120
COc1cc2ncnc(Nc3cccc(Br)c3)c2cc1OC	88.8	101	103	100	97.6	105	110	98.4	102	111	106	87.9	97.6	105	103	108	107	117	99.8	114	112	106	95.9	91.5	106	104	114	112	113	109	109	112	105
Cc1cc(O)c2c(c1)C(=O)c1cc(O)cc(O)c1C2=O	99.9	107	99.6	104	110	103	110	105	95.3	94.2	100	100	99.2	107	96.4	108	104	99.1	103	102	90.6	86.6	91.5	92.2	88.8	97.7	99.8	97.1	96.4	90.8	97	94	84.8
O=C(CCCCCCC(=O)Nc1ccccc1)NO	87.9	99.3	100	98.4	110	109	105	98.8	39	5.48	3.81	91.9	97	108	107	110	104	111	96.8	23.3	4.38	3.81	92.4	100	98.1	109	107	103	102	95.6	19.7	5.15	3.53
N[C@@H](CC(=O)N1CCn2c(nnc2C(F)(F)F)C1)Cc1cc(F)c(F)cc1F	100	105	104	113	109	104	102	103	98.2	97	94.7	91	103	97.3	95.8	99.2	99.7	92.8		95.4	89.5	88.3	98.4	94.5	97.3	100	100	84.9	90.9	89.4	91.4	91.3	88
C[N+](C)([O-])CCNc1ccc(NCC[N+](C)(C)[O-])c2c1C(=O)c1c(O)ccc(O)c1C2=O	99.5	98.6	97.6	103	100	90.1	83.2	63.4	21.8	28.9	15.2	101	101	92.3	102	82.7	72.3	62.9	42.8	7.99	13.9	7.05	84.3	80.9	95.8	96	83.7	79.3	76.2	44.9	14.8	23.6	10.6
CN[C@@H]1C[C@H]2O[C@@](C)([C@@H]1OC)n1c3ccccc3c3c4c(c5c6ccccc6n2c5c31)C(=O)N[C@H]4O	80.5	86.5	85.5	89.3	84.7	75.9	63.7	22.5	16.8	23.2	7.88	80	78	83.8	84.2	78.4	63.4	44.5	12.8	12.8	14.8	15	84.7	90.4	85.9	85.8	81.2	55.4	62	29	14	17.7	11.5
O=c1[nH]cnc2c1ncn2[C@H]1CC[C@@H](CO)O1	95.9	101	107	102	99.6	105	108	112	105	99.6	74.1	83.3	97.3	94.6	109	96.1	101	104	108	102	91.7	65.5	83.7	101	94.3	90.1	96.8	96.5	96	104	97.1	84	67.1
